{"source": "paper PMC3913854", "about": "(Investigational New Drugs, 2013)", "key": {"[1]": {"tested_on": "patients with advanced cancer", "test": "phase 1 dose-escalation study: safety, MTD, DLTs, adverse events", "format": "in vivo, human"}, "[2]": {"test": "phase 1 study: plasma pharmacokinetics", "format": "in vivo, human"}, "[3]": {"test": "phase 1 study: CSF distribution and protein binding", "format": "in vivo, human", "details": "400 mg BID; for Css,avg,u,CSF (steady-state average unbound CSF concentration): n = 5, calculated by Eq. 1"}, "advanced solid tumors": {"tested_on": "advanced solid tumors", "test": "phase 1 study: tumor response", "format": "in vivo, human", "details": "for clinical benefit rate: CR, PR or SD durable for > 6 cycles"}, "[4]": {"tested_on": "mutant EGFR kinase (L858R and L861Q)", "details": "preclinical, Nakayama et al., unpublished data, 2012; cited from earlier work"}, "[5]": {"tested_on": "EGFR mutant NSCLC cell line HCC4006", "details": "ref data on file; cited from earlier work"}, "P-glycoprotein (P-gp)": {"tested_on": "P-glycoprotein (P-gp)", "details": "in vitro transport studies; Nakayama et al., unpublished data, 2012; cited from earlier work"}, "[6]": {"tested_on": "breast cancer resistance protein (BCRP)", "details": "in vitro transport studies; Nakayama et al., unpublished data, 2012; cited from earlier work"}, "[7]": {"details": "in vitro; Nakayama et al., unpublished data, 2012; cited from earlier work"}, "[8]": {"details": "rats; cited from earlier work"}, "[9]": {"tested_on": "patients with advanced cancers", "details": "Japanese patients, N = 26, cited from earlier work"}, "malignant cell lines": {"tested_on": "malignant cell lines", "details": "preclinical; cited from earlier work"}, "murine xenograft models": {"tested_on": "murine xenograft models", "details": "cited from earlier work"}, "[10]": {"tested_on": "brain metastases from HER2+ breast cancer", "details": "monotherapy; N = 242; cited from earlier work"}, "[11]": {"details": "across an intact or a tumor-compromised BBB; cited from earlier work"}}, "note": "Entries after “also recorded” stand apart in the source; their conditions may differ.", "data": [{"smiles": "CC(C)(O)CC(=O)NCCn1ccc2ncnc(Nc3ccc(Oc4cccc(C(F)(F)F)c4)c(Cl)c3)c21", "note": "[TAK-285]", "values": [{"measurement": "dose-limiting toxicities", "setting": "[1]; all cohorts, as summarised in abstract", "result": "diarrhea, hypokalemia, and fatigue"}, {"measurement": "tolerability", "setting": "[1]; at the MTD/RP2D of 400 mg BID", "result": "generally well tolerated"}, {"measurement": "dose-proportionality of steady-state exposures", "setting": "[2]; 50 mg BID to 500 mg BID", "result": "greater than dose-proportional"}, {"measurement": "%CV of steady-state t½", "setting": "[2]; 400 mg BID", "result": 11, "unit": "%"}, {"measurement": "increase in geometric mean steady-state AUC0-τ", "setting": "[2]; 10-fold increase in dose, 50 mg BID to 500 mg BID", "result": 29, "unit": "fold"}, {"measurement": "extent of accumulation", "setting": "[2]; MTD of 400 mg BID", "result": "approximately 3 fold"}, {"measurement": "pharmacokinetic steady-state achieved", "setting": "[2]; based on similar trough concentrations on days 8, 15 and 21", "result": "≤ 8", "unit": "days"}, {"measurement": "time of maximum (peak) plasma concentration", "setting": "[2]; oral, across cohorts, median", "result": "2 to 3", "unit": "h"}, {"measurement": "slope of linear regression of log (Css,avg) versus log (Dose)", "setting": "[2]; power model, 95 % CI, 1.26–1.59", "result": 1.43}, {"measurement": "%CV in AUC0-τ", "setting": "[2]; steady-state, MTD of 400 mg BID", "result": 58, "unit": "%"}, {"measurement": "Css,avg,u,CSF (steady-state average unbound CSF concentration)", "setting": "[3]; geometric mean (%CV)", "result": 1.54, "unit": "ng/mL"}, {"measurement": "Css,avg,u,CSF (steady-state average unbound CSF concentration)", "setting": "[3]; range of individual values", "result": "0.51 to 4.27", "unit": "ng/mL"}, {"measurement": "Kp", "setting": "[3]; human, CSF (unbound) / plasma (unbound), oral, Cu,CSF:Cu,p ratio, 3 to 4 h postdose day 15, n = 7, mean (%CV)", "result": 0.663}, {"measurement": "clinical benefit rate", "setting": "advanced solid tumors; RP2D cohort, 1 patient", "result": 13, "unit": "%"}, {"measurement": "stable disease (best response)", "setting": "advanced solid tumors; RP2D cohort, 4 of 8 patients", "result": 50, "unit": "%"}, {"measurement": "complete or partial response", "setting": "advanced solid tumors; all cohorts", "result": "No patient"}, {"measurement": "clinical benefit rate", "setting": "advanced solid tumors; dose-escalation cohorts, 3 patients", "result": 9, "unit": "%"}, {"measurement": "stable disease (best response)", "setting": "advanced solid tumors; dose-escalation cohorts, 9 of 33 patients", "result": 27, "unit": "%"}, {"measurement": "inhibition of mutant EGFR kinase activity", "setting": "[4]", "result": "inhibits mutant EGFR kinase activity"}, {"measurement": "inhibition of cell growth", "setting": "[5]", "result": "did not inhibit the growth"}, {"measurement": "substrate for BBB efflux transporter P-gp", "setting": "P-glycoprotein (P-gp)", "result": "not a substrate"}, {"measurement": "substrate for BBB efflux transporter BCRP", "setting": "[6]", "result": "not a substrate"}, {"measurement": "transcellular permeability", "setting": "[7]", "result": "high"}, {"measurement": "BBB penetration / brain distribution", "setting": "[8]", "result": "crosses the intact BBB; also recorded: penetrates the BBB"}, {"measurement": "tolerability", "setting": "[9]", "result": "generally well tolerated"}, {"measurement": "partial response", "setting": "[9]; parotid cancer", "result": 1, "unit": "patient"}, {"measurement": "maximum tolerated dose (MTD)", "setting": "[9]; twice daily [BID]", "result": 300, "unit": "mg"}, {"measurement": "growth of malignant cell lines", "setting": "malignant cell lines", "result": "inhibits the growth"}, {"measurement": "antitumor activity", "setting": "murine xenograft models", "result": "has antitumor activity"}]}, {"smiles": "CS(=O)(=O)CCNCc1ccc(-c2ccc3ncnc(Nc4ccc(OCc5cccc(F)c5)c(Cl)c4)c3c2)o1", "note": "[lapatinib, N-{3-chloro-4-[(3-fluorobenzyl)oxy]phenyl}-6-[5-({[2-(methylsulfonyl)ethyl]amino}methyl)-2-furyl]-4-quinazolinamine]", "values": [{"measurement": "clinical benefit rate", "setting": "[10]", "result": 43, "unit": "%"}, {"measurement": "objective response rate", "setting": "[10]", "result": 6, "unit": "%"}, {"measurement": "patients with ≥ 50 % reduction in CNS tumor size", "setting": "[10]", "result": 8, "unit": "%"}, {"measurement": "central nervous system (CNS) penetration", "setting": "[11]", "result": "negligible"}]}]}
